In ChEMBL document CHEMBL3132848, “Glycosidase inhibition by novel guanidinium and urea iminosugar derivatives” (Medchemcomm, 2013):

Key:
Beta-galactosidase = target: T1, Beta-galactosidase (Bos taurus, UniProt Q58D55); test: Inhibition of beta-galactosidase in bovine liver after 30 mins by spectrophotometric analysis
T1 sequence (Q58D55 whole entry): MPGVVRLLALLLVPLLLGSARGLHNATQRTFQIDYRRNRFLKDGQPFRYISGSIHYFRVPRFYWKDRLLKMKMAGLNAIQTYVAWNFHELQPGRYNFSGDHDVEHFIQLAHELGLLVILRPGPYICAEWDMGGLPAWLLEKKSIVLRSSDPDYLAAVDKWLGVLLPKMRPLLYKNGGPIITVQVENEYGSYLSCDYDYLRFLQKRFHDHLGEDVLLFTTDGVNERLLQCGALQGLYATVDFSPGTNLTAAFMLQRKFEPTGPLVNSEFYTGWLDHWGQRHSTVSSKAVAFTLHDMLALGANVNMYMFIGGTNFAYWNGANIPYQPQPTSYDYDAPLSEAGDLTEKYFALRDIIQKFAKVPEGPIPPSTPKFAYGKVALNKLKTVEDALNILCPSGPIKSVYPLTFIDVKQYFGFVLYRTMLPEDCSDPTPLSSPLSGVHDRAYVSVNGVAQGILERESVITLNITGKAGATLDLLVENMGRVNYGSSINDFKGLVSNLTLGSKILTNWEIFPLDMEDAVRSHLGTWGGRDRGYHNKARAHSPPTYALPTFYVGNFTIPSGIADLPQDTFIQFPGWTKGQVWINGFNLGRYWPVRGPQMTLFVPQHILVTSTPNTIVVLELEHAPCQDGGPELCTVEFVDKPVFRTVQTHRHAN

[1] = Inhibition of beta-glucosidase in almond after 30 mins by spectrophotometric analysis; set-up: species or system Prunus dulcis
Alpha-galactosidase = Alpha-galactosidase (Coffea arabica, UniProt Q42656); test: Inhibition of alpha-galactosidase in green coffee bean after 30 mins by spectrophotometric analysis
Alpha-galactosidase, sequence (Q42656 whole entry): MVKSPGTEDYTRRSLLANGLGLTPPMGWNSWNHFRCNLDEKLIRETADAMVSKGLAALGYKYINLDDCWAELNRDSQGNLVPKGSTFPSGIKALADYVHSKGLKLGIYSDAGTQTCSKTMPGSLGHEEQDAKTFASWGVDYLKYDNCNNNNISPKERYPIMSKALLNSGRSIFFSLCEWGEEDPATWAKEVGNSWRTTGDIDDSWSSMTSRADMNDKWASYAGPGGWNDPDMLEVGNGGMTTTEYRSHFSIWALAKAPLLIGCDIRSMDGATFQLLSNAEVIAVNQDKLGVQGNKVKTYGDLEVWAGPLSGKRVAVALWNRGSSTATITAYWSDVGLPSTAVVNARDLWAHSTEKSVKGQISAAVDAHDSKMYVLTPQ

[2] = Inhibition of alpha-mannosidase in jack bean after 30 mins by spectrophotometric analysis; set-up: species or system Canavalia ensiformis
[3] = Inhibition of naringinase in Penicillium decumbens after 30 mins by spectrophotometric analysis
[4] = Inhibition of alpha-glucosidase in yeast after 30 mins by spectrophotometric analysis; set-up: species or system Saccharomyces cerevisiae
[5] = Inhibition of beta-mannosidase in Roman snail after 30 mins by spectrophotometric analysis; set-up: species or system Helix pomatia

SMILES	IC50 (Beta-galactosidase)	IC50 [1]	IC50 (Alpha-galactosidase)	IC50 [2]	IC50 [3]	IC50 [4]	IC50 [5]
N=C(NCc1ccccc1)N1C[C@H](O)[C@@H](O)[C@H](O)[C@H]1CO	5.1 µM	4.3 µM	> 1000 µM	> 1000 µM	27 µM	> 1000 µM	
CCCCNC(=O)N1C[C@H](O)[C@@H](O)[C@H](O)[C@H]1CO	27 µM	> 1000 µM	> 1000 µM	> 1000 µM	> 1000 µM	> 1000 µM	> 1000 µM
CCCCCCCCNC(=N)N1C[C@H](O)[C@@H](O)[C@H](O)[C@H]1CO	2.6 µM	25 µM	23 µM	55 µM	67 µM	31 µM	
CCCCNC(=N)N1C[C@H](O)[C@@H](O)[C@H](O)[C@H]1CO	15 µM	41 µM	18 µM	113 µM	> 1000 µM	20 µM	408 µM
OC[C@H]1NC[C@H](O)[C@@H](O)[C@@H]1O [DUVOGLUSTAT]		312 µM		> 1000 µM	33 µM	167 µM	> 1000 µM
N=C(NCCCOCC12CC3CC(CC(C3)C1)C2)N1C[C@H](O)[C@@H](O)[C@H](O)[C@H]1CO	5.4 µM	489 µM	> 1000 µM	> 1000 µM	22 µM	131 µM	
N=C(NCCO)N1C[C@H](O)[C@@H](O)[C@H](O)[C@H]1CO	> 1000 µM	457 µM	540 µM	> 1000 µM	645 µM	133 µM	
N=C(NCCOCCO)N1C[C@H](O)[C@@H](O)[C@H](O)[C@H]1CO	> 1000 µM	> 1000 µM	> 1000 µM	> 1000 µM	172 µM	251 µM	
CCCCCCN1C[C@H](O)[C@@H](O)[C@H](O)[C@H]1CO	> 1000 µM	59 µM	251 µM	> 1000 µM	6 µM	134 µM	> 1000 µM
N=C(NCCCc1ccccc1)N1C[C@H](O)[C@@H](O)[C@H](O)[C@H]1CO	6.2 µM	67 µM	> 1000 µM	> 1000 µM	33 µM	> 1000 µM	
